Reference: patent US20110183942A1, “Methods and Compositions for Treating Alzheimer's Disease” (UNIVERSITY OF MEDICINE AND DENTISTRY OF NEW JERSEY, priority 2008, published 2011)
“Also recorded” adds a separate entry of the source.

Legend:
[1] = tested on: surface AMPA receptor (GluR2/3, GluR1) in cultured neurons; assay: Surface biotinylation assay of AMPA receptor subunits; format: cell-based, mouse; settings: DHPG 5 min
Experimental: For surface biotinylation, drug-treated cortical neurons were cooled on ice, washed twice with ice-cold PBS++ (1× PBS, 1 mM CaCl2, 0.5 mM MgCl2) and then incubated with PBS++ containing 1 mg/ml Sulfo-NHS-SSBiotin (Pierce) for 30 min at 4° C. Unreacted biotin was quenched by washing cells three times with PBS++ containing 100 mM Glycine (pH 7.4) (briefly once and for 5 min twice). Cultures were harvested in RIPA buffer and sonicated. Homogenates were centrifuged at […] for 20 min at 4° C. Fifteen % of supernatant was saved as the total protein. […] Precipitates were washed with RIPA buffer three times (5 min each time). All procedures were done at 4° C.

[2] = tested on: Arc protein in DIV14 forebrain neurons; assay: Western blot of Arc protein in cultured forebrain neurons; format: cell-based, mouse
Experimental: For biochemistry experiments, 0.4×10^6 neurons were added to each well of a 6-well plate (Coming) coated with poly-L-lysine. Growth medium consisted of NeuroBasal (Invitrogen) supplemented with 1% fetal bovine serum (Hyclone), 2% B27, 1% Glutamax (Invitrogen), 100 U/mL penicillin, and 100 U/mL streptomycin (Invitrogen). Neurons were fed twice per week with glia conditioned growth medium.
Transfected HEK293T cells or cultured neurons were treated with various drugs and then harvested in IP buffer supplemented with 1% Triton X-100 buffer and Complete™ EDTA-Free protease inhibitors. Soluble fractions were diluted with 4× SDS sample buffer.
The membrane was blocked with TBST (50 mM Tris, pH 7.5, with 150 mM NaCl, and 0.1% Tween-20) containing 5% non-fat milk for one hour at room temperature, followed by incubation with primary antibody in TBST buffer overnight at 4° C. After three washes with TBST buffer, membranes were incubated with HRP-conjugated anti-rabbit, or anti-mouse antibody in TBST for another hour. After three washes with TBST buffer, the membrane was treated with SuperSignal ECL substrate (Pierce) according to the manufacturer's protocol.
To reduce the background signal in the co-IP assay, HRP-conjugated HA or HPR conjugated myc antibody (Santa Cruz) was used when overexpressed proteins were tagged with HA or myc. […] Image J software (NIH) was used for quantification.

[3] = tested on: Arc mRNA in cultured neurons; assay: Real-time RT-PCR of Arc mRNA; format: cell-based; settings: BDNF 10 ng/ml at 40 min; forskolin 50 μM at 20 min; DHPG at 20 and 40 min after stimulation
Experimental: RNA samples from neuronal cultures were prepared using the PARIS kit (Ambion) according to the manufacturer's protocol. Following RNA extraction, samples were treated with DNase to remove contaminating DNA prior to cDNA synthesis. Total RNA was reverse transcribed using the SuperScript II First Strand Synthesis System for RT-PCR (Invitrogen) according to the manufacturer's protocol. A negative control without reverse transcriptase was included.
Primer specificity was verified by melt curve analysis. PCR amplification of cDNA was performed using the BioRad iCycler Real-Time Detection System (BioRad Laboratories). cDNA (1 μl) was added to 24 μl of 1× reaction master mix (3 mM MgCl2, KCl, Tris-HCl, iTaq DNA polymerase, 25 units/ml SYBR Green 1, 0.2 mM each dNTPs, 10 nM fluorescein and 500 nM each gene specific primers). […]
GAPDH was used to normalize data. The threshold for detection of PCR product above background was set at 10× the standard deviation of the mean background fluorescence for all reactions. Background fluorescence was determined from cycles 1-5 prior to the exponential amplification of product and subtracted from the raw fluorescence of each reaction/cycle. […] Threshold cycle (CT; number of cycles to reach threshold of detection) was determined for each reaction.
Relative gene expression was determined using the 2^−ΔΔCT method (Livak, et al., Methods 25, 402-408 (2001)). […]

[4] = tested on: Arc protein in DIV14 hippocampal neurons; assay: Arc immunocytochemistry in cultured hippocampal neurons; format: cell-based, mouse
Experimental: Immunocytochemistry of cultured neurons was performed as described (Shepherd et al., Neuron, 52, 475-484 (2006)). Briefly, DIV14 primary hippocampal neurons were fixed in fixation solution (4% paraformaldehyde, 4% sucrose containing 1× PBS) for 20 min at 4° C. and were permeabilized with 0.2% Triton X-100 in PBS for 10 min 4° C. Cells were then blocked for 1 hr at room temperature in 10% normal goat serum (NGS). Primary antibodies were diluted (1:250 of phospho-eEF2 antibody, 1:500 of PSD95, 1:300 for Arc) in 10% NGS and incubated with neurons for overnight at 4° C. Alexa 488, or Alexa 555-conjugated secondary antibodies (1:500; Molecular Probes) were diluted in 10% NGS and incubated at room temperature for 1 hr. Coverslips were mounted with PermaFluor containing DAPI (Invitrogen). All images were taken with same exposure and setting using Zeiss 510 Meta confocal microscope. Quantification of Arc levels was carried out using Image J software. For the measurement of dendritic Arc levels, average pixel intensity was measured in the primary dendrites 20 μm away from the soma.

reduction of ratio of surface to total GluR2/3 ([1]; WT neurons): ~30% | reduction of ratio of surface to total GluR2/3 ([1]; eEF2K KO neurons): did not significantly reduce
SMILES: NC(C(=O)O)c1cc(O)cc(O)c1 (racemic) [DHPG, (R,S)-3,5-DHPG]
rapid increase of Arc protein following DHPG stimulation ([2]; Fmr1 KO neurons): absent | level of Arc protein after DHPG ([2]; WT neurons, DHPG 50 μM, 5 min): significantly increased the level of Arc; also recorded: induced | increase in Arc protein 5 min after DHPG ([2]; eEF2K KO neurons): absent | level of Arc mRNA [3]: slightly increased the level of Arc mRNA | Arc immunoreactivity in dendrites ([4]; DHPG 50 μM 5 min, relative to untreated dendrites): 1.58±0.095 | Arc immunoreactivity in cell body ([4]; DHPG 50 μM 5 min, relative to untreated soma): 1.34±0.063 | level of Arc in soma or dendrites after DHPG ([4]; eEF2K KO hippocampal neurons): did not change the level of Arc
